The values that follow come from patent publication US20160120915A1, “METHODS FOR MANIPULATING IMMUNE RESPONSES BY ALTERING MICROBIOTA” (NEW YORK UNIVERSITY, priority 2013, published 2016).

For experiment [1] the following is noted: asthma; cited from earlier work.
Experiment [2] deals with terminal ileum. The experiment is described as follows: PAT: ileal expression by qPCR in 6-week mice. Type of experiment: in vivo, C57BL/6 mice. The following applies: 6-week male mice, 3 pulses, vs control, p<0.05. On the procedure:
Total RNA was extracted from mouse tissues using the RNeasy Mini Kit (Qiagen), according to the manufacturer's instructions. Total RNA was reverse transcribed to cDNA using the Verso™ cDNA Synthesis Kit (Thermo Scientific). To generate standards for expression analysis of each target gene, the cDNA region of interest was PCR-amplified and the PCR product was cloned into pGEM-T easy (Promega). qPCR was performed with LightCycler 480 SYBR Green I Master mix (Roche) and run in a LightCycler 480 system (Roche). Target mRNA was normalized to GAPDH mRNA as an internal control in each sample.
C57BL/6 mice were fed a standard diet after weaning, and exposed to 3 pulses of therapeutic dose antibiotics (Amoxicillin or Tylosin), or no antibiotics, via their drinking water, all before 6 weeks of age. Mice were sacrificed at 6 weeks of age.
The distal ileum (1 cm) without Peyer's Patches was collected from each mouse for RNA extraction and kept in RNAlater (Ambion) overnight at 4° C. Samples were stored at −80° C. until RNA extraction was performed.
Panel A: Mice were exposed to 3 pulses of antibiotics (Amoxicillin or Tylosin), or no antibiotics, via breast milk or drinking water at the indicated time points. Panel B: Male mice, including 5 Control, 4 Amoxicillin, and 6 Tylosin, were fed a normal diet. They were sacrificed at 6 weeks of age and the terminal[1 cm] ileum without Peyer's Patches [TI-] was collected.
Ileal expression of T-bet and IFN-γ [Th1], GATA3 and IL-4 [Th2], Foxp3, and TGFβ1 [Treg], and RORγt, IL-17A, and IL-17F [Th17] (Control n=5, Amoxicillin n=4, Tylosin n=6) was quantitated with qPCR and normalized by GAPDH expression. Expression of T-bet and IFNγ [Th1] (p<0.05) and IL-17A and IL-17F [Th17] […] Foxp3 and RORγt were lower in Tylosin than control. This example extends the earlier observation that continuous antibiotics affect ileal immune cell populations and effectors by showing that pulses are sufficient to produce similar effects.
(Quantitative PCR measures a nucleic acid by following its amplification.)

For experiment [3], the system named is terminal ileum. The experiment can be described thus: PAT: ileal gene expression profiling by whole genome microarray, 6-week mice. Type of experiment: in vivo, C57BL/6 mice. The following applies: 6-week PAT vs Control, T-test p<0.05 and fold change ≧1.2 or ≦0.8. As to the method:
Ileal gene expression profiling of STAT, PAT, and control animal groups, was performed using the Affymetrix Genechip system (Affymetrix). Total RNA quality and quantity were determined using the Agilent 2100 Bioanalyser and Nanodrop ND-1000. Total RNA (100 ng) was used to prepare cDNA following the Affymetrix […] Express Kit labelling protocol (Affymetrix). Standardized array processing procedures recommended by Affymetrix were performed, including hybridization, fluidics processing and scanning of the Affymetrix MG-430 2.0 arrays. GeneSpring GX11 software (Agilent Technologies) was used to normalize the raw data (Affymetrix CEL files) by Robust Multichip Average algorithm (RMA).
1127 and 3065 reproducibly regulated genes were identified from ˜45,000 genes of the mouse genome by T-test (p<0.05) and fold change (≧1.2 or ≦0.8) in 6-week PAT (Panel A; Control vs Amoxicillin and Panel B; Control vs Tylosin), respectively (FIG. 22). DAVID analysis was performed using the regulated genes, and Gene Set Enrichment analysis (GSEA) was performed using whole gene data.
(C, n=3), amoxicillin (A, n=3), and tylosin treated mice (T, n=3).

With `CC[C@H]1OC(=O)[C@H](C)[C@@H](O[C@H]2C[C@@](C)(OC)[C@@H](O)[C@H](C)O2)[C@H](C)[C@@H](O[C@@H]2O[C@H](C)C[C@H](N(C)C)[C@H]2O)[C@](C)(OC)C[C@@H](C)C(=O)[C@H](C)[C@@H](O)[C@]1(C)O` [clarithromycin], in experiment [1], the “airway hyperresponsives (AHR)” value was “reduced” and the neutrophilic inflammation result is reported as “reduced”.
As for `CC1(C)S[C@@H]2[C@H](NC(=O)[C@H](N)c3ccc(O)cc3)C(=O)N2[C@H]1C(=O)O` [Amoxicillin], in the experiment on terminal ileum [2], the “ileal expression of IFNγ [Th1]” value is recorded as “significantly lower”, the “ileal expression of IL-17A [Th17]” value is recorded as “significantly lower”, the “ileal expression of IL-17F [Th17]” value was “significantly lower” and the “ileal expression of T-bet [Th1]” value is listed as “significantly lower”. In addition, in the experiment on terminal ileum [3], the “reproducibly regulated genes out of ~45,000 genes of the mouse genome” value turned out to be 1127.
